Experiments:
Type in all cases: cell-based, mouse
[1] = system: Bone-marrow-derived macrophages; test: IL-10 secretion (BIOPLEX) in LPS-stimulated macrophages; conditions: 10 μM; LPS-stimulated
Description: The concentration of TNFα, IL-6, IL-10 and IL-12p40 in cell-free culture supernatants were measured using the Bio-Plex Pro Assay system (Bio-Rad).

[2] = system: Bone-marrow-derived macrophages; test: TLR signalling immunoblots (MAPKs, MSK1/2, CREB, IKKs, TBK1); conditions: 3 μM bosutinib, 0.3 μM dasatinib or 0.5 μM HG-9-91-01
Description: RAW264.7 cells were cultured in DMEM containing 10% FBS, 2 mM glutamine and penicillin and streptomycin. […] Cells were treated for 1 h with or without inhibitors and then stimulated for up to 24 h with either 1 μg/ml Pam3CSK4 or 100 ng/ml LPS.
Cells were extracted in lysis buffer [50 mM Tris/HCl, pH 7.4, 1 mM EDTA, 1 mM EGTA, 50 mM NaF, 5 mM sodium pyrophosphate, 10 mM sodium β-glycerol 1-phosphate, 1 mM DTT, 1 mM sodium orthovanadate, 0.27 M sucrose, 1% (v/v) Triton X-100, 1 μg/ml aprotinin, 1 μg/ml leupeptin and 1 mM PMSF]. Cell extracts were clarified by centrifugation and protein concentrations were determined using the Bradford assay. To immunoprecipitate endogenous CRTC3, 1 mg of cell extract was incubated with 5 μg of anti-CRTC3 [13] covalently cross-linked on to Protein G–Sepharose. Immune complexes were washed three times with lysis buffer, eluted in 1% SDS and separated by SDS/PAGE. To detect proteins in cell lysates, 20 μg of protein extract was separated by SDS/PAGE. After transfer to PVDF membranes, proteins were detected by immunoblotting and visualized by treating the blots with ECL (GE Healthcare) followed by autoradiography.

[3] = system: Bone-marrow-derived macrophages; test: CREB-dependent gene transcription (qPCR); conditions: macrophages
Description: mRNA was extracted from cells using the MicroElute Total RNA kit following the manufacturers’ instructions (Omega Bio-Tek). cDNA was generated from 0.5 μg of total RNA using the iScript cDNA synthesis kit and quantified by quantitative real-time PCR (qPCR) using the SsoFast EvaGreen Supermix on a CFX384 real-time system (Bio-Rad Laboratories). The relative expression of each gene was calculated from CT values using the Pfaffl method and was normalized against the mRNA levels of housekeeping genes including 18S RNA and GAPDH. Results are reported relative to untreated control cells, which were set to 1.

COc1cc2ncnc(Nc3ccc(F)c(Cl)c3)c2cc1OCCCN1CCOCC1 [Gefitinib, gefitinib]
IL-10 production [1]: failed to elevate IL-10 production

COc1cc2/c(=N/c3ccc(Br)cc3F)nc[nH]c2cc1OCC1CCN(C)CC1 [Vandetinib, vandetinib]
IL-10 production [1]: failed to elevate IL-10 production

C#Cc1cccc(Nc2ncnc3cc(OCCOC)c(OCCOC)cc23)c1 [Erlotinib, erlotinib]
IL-10 production [1]: failed to elevate IL-10 production

COc1ccc(N(C(=O)Nc2c(C)cccc2C)c2cc(Nc3ccc(N4CCN(C)CC4)cc3)ncn2)c(OC)c1 [HG-9-91-01]
TLR-stimulated phosphorylation of ERK1/2, JNK1/2, p38α/β MAPKs, MSK1/2, IKKα/β, TBK1 and their direct substrates [2]: occurred normally

CS(=O)(=O)CCNCc1ccc(-c2ccc3ncnc(Nc4ccc(OCc5cccc(F)c5)c(Cl)c4)c3c2)o1 [Lapatinib, lapatinib]
IL-10 production [1]: failed to elevate IL-10 production

CCN(CC)CCNC(=O)c1c(C)[nH]c(/C=C2\C(=O)Nc3ccc(F)cc32)c1C [Sunitinib, sunitinib]
IL-10 production [1]: failed to elevate IL-10 production

Cc1ccc(NC(=O)c2ccc(CN3CCN(C)CC3)cc2)cc1Nc1nccc(-c2cccnc2)n1 [Imatinib, imatinib]
IL-10 production [1]: failed to elevate IL-10 production | CREB-dependent gene transcription and IL-10 production [3]: fail to induce CREB-dependent gene transcription and to elevate IL-10 production

Reference: PMC4286194 (Biochemical Journal, 2015)
